Test results reported in patent US20110160462A1, “CRYSTALLINE FORMS OF THIAZOLIDINEDIONE COMPOUND AND ITS MANUFACTURING METHOD” (DAIICHI SANKYO COMPANY, LIMITED, priority 2008, published 2011).
“Also recorded” adds a separate entry of the source. Where two headings read alike, the source gives them in different places.

Tests used:
[1] = Solubility in dilute hydrochloric acid (Test Example 3); conditions: for The concentration of 5-(4-{[6-(4-amino-3,5-dimethylphenoxy)-1-methyl-1-H-benzimidazol-2-yl]methoxy}benzyl)-1,3-thiazolidine-2,4-dione in dilute hydrochloric acid: dilute hydrochloric acid 9.6 mg/g (pH about 0.7), 25° C., 500 mg in 5 mL, sampled after 6 minutes
Experimental: Concentrated hydrochloric acid was diluted with water to prepare dilute hydrochloric acid (with a pH of about 0.7 at 25° C.) with a hydrochloric acid concentration of 9.6 mg/g, which was used as a test liquid. 500 mg of the crystalline form was weighed and added to 5 mL of the test liquid at 25° C. and stirred at the same temperature. After 6 minutes, the resulting test liquid was sampled and filtered. The concentration of 5-(4-{[6-(4-amino-3,5-dimethylphenoxy)-1-methyl-1-H-benzimi dazol-2-yl]methoxy}benzyl) 3-thiazolidine-2,4-dione in the filtrate was determined.
The concentration of 5-(4-{[6-(4-amino-3,5-dimethylphenoxy)-1-methyl-1-H-benzimi dazol-2-yl]methoxy}benzyl) 3-thiazolidine-2,4-dione was determined by the method described below.
Water, acetonitrile and methanol were mixed in a volume ratio of 55:40:5 to form a sample solvent.
In the sample solvent was dissolved 0.2 g of isoamyl 4-hydroxybenzoate so that 200 mL of an internal standard solution was obtained. About 0.04 g of a standard sample of 5-(4-{[6-(4-amino-3,5-dimethylphenoxy)-1-methyl-1-H-benzimi dazol-2-yl]methoxy}benzyl)-1,3-thiazolidine-2,4-dione dihydrochloride monohydrate was precisely weighed, transferred to a 200 mL measuring flask and dissolved in the sample solvent to form 200 mL of a solution. 5 mL of the solution was precisely measured and transferred to a 50 mL measuring flask. 10 mL of the internal standard solution was precisely added to the measuring flask, and the sample solvent was further added thereto to form 50 mL of a standard solution.
After sampling, the test liquid was filtered, and about 0.04 g of the filtered test liquid was precisely weighed and transferred to a 50 mL measuring flask. About 2.5 mL of dimethyl sulfoxide was added thereto. After 10 mL of the internal standard solution was added thereto, the sample solvent was further added thereto to form 50 mL of a sample solution.
The concentration was measured under the test conditions below.
The concentration is calculated from the following formula.
The concentration (mg/g) of the test liquid=1000×(QT×WS×FP×502.58)/(QS×WT×40×593.52),
wherein WS: the weight (g) of the standard sample when the standard solution is prepared; WT: the weight (g) of the test liquid when the sample solution is prepared; FP: the purity factor of the standard sample; QS: the value obtained by dividing the peak area of the standard sample in the chromatogram of the standard solution by the peak area of the internal standard; and QT: the value obtained by dividing the peak area of the sample in the chromatogram of the sample solution by the peak area of the internal standard.

[2] = as disclosed in Japanese Patent No. 3488099; cited from earlier work
[3] = biological target: T1, peroxisome proliferator-activated receptor (PPAR) γ (Homo sapiens, UniProt P37231); conditions: as disclosed in Patent Documents 1 to 5; cited from earlier work
T1 sequence (P37231 1-505): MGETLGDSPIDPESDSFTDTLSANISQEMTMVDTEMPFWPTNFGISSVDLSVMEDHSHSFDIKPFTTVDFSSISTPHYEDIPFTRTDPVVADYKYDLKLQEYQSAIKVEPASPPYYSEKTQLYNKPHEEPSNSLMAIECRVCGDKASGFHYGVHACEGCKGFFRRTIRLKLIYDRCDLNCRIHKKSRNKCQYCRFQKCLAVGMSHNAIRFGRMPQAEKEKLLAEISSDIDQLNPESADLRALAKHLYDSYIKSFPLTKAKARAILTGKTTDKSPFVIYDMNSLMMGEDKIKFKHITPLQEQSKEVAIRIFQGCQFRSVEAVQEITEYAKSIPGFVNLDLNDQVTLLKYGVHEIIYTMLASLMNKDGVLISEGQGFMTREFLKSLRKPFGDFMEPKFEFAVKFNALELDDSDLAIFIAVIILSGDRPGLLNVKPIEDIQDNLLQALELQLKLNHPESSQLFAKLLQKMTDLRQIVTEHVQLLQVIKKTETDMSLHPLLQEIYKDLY

cancer cells [4] = conditions: in combination with a VEGFR inhibitor or a Raf kinase inhibitor; Test Example 6 in WO 2007/091622; cited from earlier work
[5] = test system: human non-small-cell lung cancer; conditions: Test Example 5 in WO 2007/091622, cited from earlier work
[6] = test system: human colon cancer cell lines; conditions: Test Example 3 in WO 2007/091622; cited from earlier work
human leukemia cells = conditions: Test Example 2 in WO 2007/091622; cited from earlier work
human kidney cancer = conditions: Test Example 7 in WO 2007/091622, cited from earlier work
[7] = test system: cancer cells including human stomach cancer cells, human breast cancer cells, small cell lung cancer, pancreas cancer cells, prostate cancer cells, kidney …; conditions: Test Example 1 in WO 2007/091622; cited from earlier work
cancer cells [8] = conditions: in combination with an epidermal growth factor receptor (EGFR) inhibitor; Test Example 4 in WO 2007/091622; cited from earlier work

With `Cc1cc(Oc2ccc3nc(COc4ccc(CC5SC(=O)NC5=O)cc4)n(C)c3c2)cc(C)c1N.Cl.Cl.O` (centres unmarked) [5-(4-{[6-(4-amino-3,5-dimethylphenoxy)-1-methyl-1-H-benzimidazol-2-yl]methoxy}benzyl)-1,3-thiazolidine-2,4-dione dihydrochloride monohydrate] the “The concentration of 5-(4-{[6-(4-amino-3,5-dimethylphenoxy)-1-methyl-1-H-benzimidazol-2-yl]methoxy}benzyl)-1,3-thiazolidine-2,4-dione in dilute hydrochloric acid” value ([1]; dihydrochloride monohydrate) was 0.276 mg/g.
For `Cc1cc(Oc2ccc3nc(COc4ccc(CC5SC(=O)NC5=O)cc4)n(C)c3c2)cc(C)c1N` (centres unmarked) [Compound (I), 5-(4-{[6-(4-amino-3,5-dimethylphenoxy)-1-methyl-1-H-benzimidazol-2-yl]methoxy}benzyl)-1,3-thiazolidine-2,4-dione], the “activity to ameliorate insulin resistance and to reduce blood sugar” value [2] is listed as “significant activity to ameliorate insulin resistance and to reduce blood sugar” and the “ability to activate PPAR γ” value [3] is listed as “significant ability to activate”.
For `Cc1cc(Oc2ccc3nc(COc4ccc(CC5SC(=O)NC5=O)cc4)n(C)c3c2)cc(C)c1N.Cl.Cl.O` (centres unmarked) [Crystalline form A, 5-(4-{[6-(4-amino-3,5-dimethylphenoxy)-1-methyl-1-H-benzimidazol-2-yl]methoxy}benzyl)-1,3-thiazolidine-2,4-dione dihydrochloride monohydrate], the “The concentration of 5-(4-{[6-(4-amino-3,5-dimethylphenoxy)-1-methyl-1-H-benzimidazol-2-yl]methoxy}benzyl)-1,3-thiazolidine-2,4-dione in dilute hydrochloric acid” value ([1]; listed as Crystalline form A manufactured according to Example 4, dihydrochloride monohydrate) was 0.325 mg/g and the “Solubility / concentration in dilute hydrochloric acid, comparison in words” value ([1]; dilute hydrochloric acid, dihydrochloride monohydrate) was “highest concentration among the dihydrochloride monohydrate crystalline forms; also recorded: higher solubility than Crystalline form B”.
For `Cc1cc(Oc2ccc3nc(COc4ccc(CC5SC(=O)NC5=O)cc4)n(C)c3c2)cc(C)c1N.Cl.Cl` (centres unmarked) [dihydrochloride of Compound (I), 5-(4-{[6-(4-amino-3,5-dimethylphenoxy)-1-methyl-1-H-benzimidazol-2-yl]methoxy}benzyl)-1,3-thiazolidine-2,4-dione dihydrochloride], the “activity to inhibit the growth of cancer cells in combination” value (cancer cells [4]) is listed as “synergistic activity to inhibit the growth”, the “antitumor activity against human non-small-cell lung cancer” value ([5]; alone) is listed as “has antitumor activity” and the “antitumor activity against human non-small-cell lung cancer in combination” value ([5]; in combination with an EGFR inhibitor) is listed as “enhanced antitumor activity”. The “antitumor activity in vivo against human colon cancer cell lines” value [6] was “significant antitumor activity”, the “growth inhibition of human leukemia cells” value (human leukemia cells) was “significantly inhibits the growth-inhibiting activity” and the “antitumor activity against human kidney cancer” value (human kidney cancer; alone) was “has antitumor activity”. The “antitumor activity against human kidney cancer in combination” value (human kidney cancer; in combination with a VEGFR inhibitor or a Raf kinase inhibitor) was “enhanced antitumor activity”, the “activity to inhibit the growth of cancer cells” value [7] was “significant activity to inhibit the growth” and the “activity to inhibit the growth of cancer cells in combination” value (cancer cells [8]) was “synergistic activity to inhibit the growth”.
